Measurements published in US10369089B2, “Iron oxide nanoparticles and methods of use thereof” (THE TRUSTEES OF THE UNIVERSITY OF PENNSYLVANIA, priority 2015, dated 2019).

Key:
[1] = system: gingival and palatal tissues; set-up: species or system Sprague-Dawley rats; details: rat, in vivo
Excerpt: Each group was provided with the National Institutes of Health cariogenic diet 2000 and 5% sucrose water ad libitum. The experiment proceeded for 3 weeks. All animals were weighed weekly and their physical appearance was noted daily. All animals gained weight equally among the experimental groups and remained in good health during the experimental period. At the end of the experimental period, the animals were sacrificed and the jaws were surgically removed and dissected. All of the jaws were defleshed and the teeth were prepared for caries scoring according to Larson's modification of Keyes' system disease (see Larson, Animal models in cariology: symposium and workshop proceedings special supplement of microbiology abstracts, 1981; Bowen, Odontology, 2013; […] et al., Infect Immun, 2014; Horev, ACS Nano, 2015). Determination of the caries score of the codified jaws was performed by one calibrated examiner. Furthermore, both the gingival and palatal tissues were collected and processed for hematoxylin and eosin (HE) staining for histopathological analysis.

[2] = system: insoluble and soluble EPS; assay: EPS degradation within biofilms; type: cell-based, Streptococcus mutans UA159; details: 30 min after H2O2 exposure; vs control
Excerpt: Biofilms were formed on saliva-coated hydroxyapatite (sHA) surfaces (tooth enamel-like material) using Streptococcus mutans, a well-established biofilm-forming, acidogenic and matrix-producing oral pathogen (FIG. 9). The hydroxyapatite discs (surface area, 2.7±0.2 cm^2) were purchased from Clarkson Chromatography and the bacteria strain, Streptococcus mutans UA159, was purchased from ATCC. The biofilm method is based on the saliva-coated hydroxyapatite (sHA) disc model (see Xiao et al., PLoS Pathog. 2012; Klein et al., J Vis Exp. 2011; Falsetta et al., Infect Immun., 2014; Koo et al., J Bacteriol, 2010; Koo et al., J Antimicrob Chemother, 2003). […] The biofilms were collected and analyzed at specific time points (19 h, 29 h and 43 h) by means of confocal fluorescence imaging, microbiological and biochemical analyses (Xiao et al., PLoS Pathog. 2012; Klein et al., J Vis Exp. 2011; Falsetta et al., Infect Immun., 2014; Koo et al., J Bacteriol, 2010; Koo et al., J Antimicrob Chemother, 2003).
To investigate whether CAT-NP-mediated H2O2 catalysis and generation of free-radicals in situ can kill embedded bacteria and degrade the EPS-matrix within biofilms, the following experiments were performed. […] Biofilms treated with CAT-NPs (0.5 mg/ml) were immediately exposed to H2O2 (0.1 to 1%, v/v) and the number of viable cells and EPS content were determined (FIG. 13A and FIG. 14). […]

[3] = Degradation of purified glucans produced by GtfB and GtfD; type: biochemical; details: 0.1 M NaOAc pH 4.5, 37° C., 30 min
Procedure: Given that free-radicals produced from H2O2 catalysis can also degrade polysaccharides in vitro (Gao et al., Nanoscale, 2014), the amount of EPS in the CAT-NP-treated biofilms was analyzed following exposure to H2O2. For assessment of EPS degradation, 100 μg of (insoluble or soluble) glucans produced by purified glucosyltransferases (GtfB or GtfD) (Koo et al., Antimicrob Agents Chemother, 2002) were mixed with each of the treatment solutions (in 0.1 M NaOAc, pH 4.5) and incubated at 37° C. for 30 min. The glucans were manufactured as follows. Each of the Gtf enzymes (10 U) were mixed with a sucrose substrate buffer (100 mM sucrose, 20 μM dextran 9,000, 50 mM KCl, 1.0 mM KPO4, 1.0 mM CaCl2 and 0.1 mM MgCl2, pH 6.5) and incubated for 4 h at 37° C. After incubation, the glucans produced were collected by centrifugation, washed and the total amounts were determined by standard phenol-sulfuric acid colorimetric assay (Koo et al., J Antimicrob Chemother, 2003; Koo et al., Antimicrob Agents Chemother, 2002). One hundred micrograms of glucan was mixed with each of the treatment solutions (total reaction volume of 300 μl in 0.1 M NaOAc, pH 4.5) and incubated at 37° C. for 30 min with rocking. After incubation, the amount of reducing sugars was determined by Somogyi-Nelson colorimetric assay.

[4] = system: S. mutans biofilms; assay: Biofilm disruption after twice daily topical treatment (confocal microscopy); type: cell-based, Streptococcus mutans UA159; details: CAT-NP 0.5 mg/ml, H2O2 1%, in vitro
Excerpt: To determine the retention and the spatial distribution of CAT-NPs within an intact biofilm 3D architecture, multiphoton confocal microscopy and computational analysis were used (Xiao et al., PLoS Pathog. 2012; Klein et al., J Vis Exp, 2011; Koo et al., J Bacteriol, 2010). The exopolysaccharides (EPS) (in red) were labeled using […] Alexa Fluor 647-labeled dextran conjugate (10 kDa; 647/668 nm; Molecular Probes Inc., Invitrogen Corp., Carlsbad, Calif., USA) and the bacterial cells (in green) were stained with 2.5 μM SYTO 9 (485/498 nm; Molecular Probes Inc.). The CAT-NPs (in white) were detected via their inherent non-linear optical property using multiphoton confocal microscopy (Xiao et al., PLoS Pathog, 2012; Klein et al., J Vis Exp, 2011; Liao et al., Adv Funct Mater, 2013; Koo et al., J Bacteriol, 2010; Liao et al., Adv Funct Mater, 2013). Imaging was performed using a Leica SP5 multiphoton confocal microscope with a 20× LPlan N (1.05 numerical aperture) water immersion objective lens. […] The confocal images were analyzed using software for simultaneous visualization and quantification of EPS, bacterial cells and CAT-NPs within the intact biofilms. […] COMSTAT and ImageJ were used for quantitative analysis as previously described (Xiao et al., PLoS Pathog. 2012; Klein et al., J Vis Exp. 2011; Koo et al., J Bacteriol, 2010). […]

[5] = system: dental caries; assay: Rodent model of dental caries; type: in vivo, Sprague-Dawley rats; details: rats, topical twice-daily for 3 weeks; vs. vehicle control
Procedure: In brief, animal experiments were performed on a well-established rodent model of dental caries (Bowen, Odontology, 2013; […] et al., Infect Immun, 2014; Horev, ACS Nano, 2015; Koo et al., J Dent Res, 2005). Briefly, Sprague-Dawley rats, 15 days old, were purchased with their dams from Harlan Laboratories (Madison, Wis., USA) and screened for infection with S. mutans. Any animals infected with S. mutans prior to inoculation were removed from the study. The animals were then infected orally using an actively growing (mid-logarithmic) culture of S. mutans UA159 and their infection was checked via oral swabbing. Infected animals were randomly placed into four treatment groups (12 animals/group) and their teeth were treated topically using a custom-made applicator twice daily. The treatment groups included: […] Agents were applied topically (orally-delivered; 100 μL per rat) twice-daily for 3 weeks, with brief exposures (30 s) to simulate clinical use. Each group was provided with the National Institutes of Health cariogenic diet 2000 and 5% sucrose water ad libitum. The experiment proceeded for 3 weeks. All animals were weighed weekly and their physical appearance was noted daily. All animals gained weight equally among the experimental groups and remained in good health during the experimental period. […]

## iron oxide nanoparticles [IO-NPs]
[1]
  cytotoxic effects in gingival and palatal tissues (histopathology): no cytotoxic effects

## OO [H2O2, hydrogen peroxide]
[2]
  amounts of insoluble and soluble EPS within biofilms: inability to reduce EPS within biofilms
[3]
  degradation of glucans from GtfB and GtfD (glucose released): failed to cleave either glucan
[4]
  biofilm disruption (accumulation of bacterial cells and EPS-matrix): limited anti-biofilm effects
[5]
  initiation and severity of carious lesions (caries scoring): without significant effect
[1]
  cytotoxic effects in gingival and palatal tissues (histopathology): no cytotoxic effects
